Source: US11912705B2, “Cathinone derivatives, pharmaceutical formulations, and methods” (The Corporation of Mercer University, priority 2020, dated 2024)

How the values were obtained:
[1] = target: T1, Dopamine transporter (Homo sapiens, UniProt Q01959); test: Dopamine transporter uptake (h); assay type: cell-based
T1 construct: Eurofins/Cerep (contract testing)
Method: (§1) Compounds (1) and (2) were tested at several concentrations for IC50 or EC50 determination at target receptors. […] For antagonist assays, Kb affinity values were calculated from IC50 values using GraphPad Prism 9 (San Diego, Calif. USA).

[2] = target: T2, Serotonin transporter (Rattus norvegicus, UniProt P31652); test: Serotonin transporter uptake (rat brain synaptosomes); assay type: biochemical
T2 construct: tissue Eurofins/Cerep (contract testing); host or cells: rat brain synaptosomes (per the earlier reading)
Method: as §1

[3] = target: T3, Norepinephrine transporter (Homo sapiens, UniProt P23975); test: Norepinephrine transporter uptake (h); assay type: cell-based
T3 construct: Eurofins/Cerep (contract testing)
Method: For antagonist assays, Kb affinity values were calculated from IC50 values using GraphPad Prism 9 (San Diego, Calif. USA).

[4] = target: T4, human M2R (Homo sapiens, UniProt P08172); test: M2R cAMP signaling (forskolin-stimulated cAMP, oxotremorine agonist); assay type: cell-based
T4 construct: host or cells: HEK293 (CRL-1573, ATCC), transient
T4 sequence (P08172 1-466): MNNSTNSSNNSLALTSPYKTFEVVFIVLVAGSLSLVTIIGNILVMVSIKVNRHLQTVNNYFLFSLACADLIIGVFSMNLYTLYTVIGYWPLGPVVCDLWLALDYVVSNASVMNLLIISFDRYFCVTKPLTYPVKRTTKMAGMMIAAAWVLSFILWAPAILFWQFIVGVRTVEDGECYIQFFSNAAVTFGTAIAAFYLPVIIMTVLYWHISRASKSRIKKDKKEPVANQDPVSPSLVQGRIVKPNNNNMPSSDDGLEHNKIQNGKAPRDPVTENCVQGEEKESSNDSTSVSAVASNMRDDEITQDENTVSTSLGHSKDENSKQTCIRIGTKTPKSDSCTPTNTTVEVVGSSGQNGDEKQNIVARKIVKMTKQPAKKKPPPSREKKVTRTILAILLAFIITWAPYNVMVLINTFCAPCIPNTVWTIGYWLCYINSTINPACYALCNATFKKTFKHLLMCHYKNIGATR
Method: The M2R coupled to Gαi/o proteins, and its agonism functioned to decrease formation of the intracellular second messenger cyclic-adenosine-monophosphate (cAMP). […] In the presence of oxotremorine, an antagonist of the M2R would be expected to reverse the effects of the agonist, thereby increasing cAMP formation.
M2R cAMP Signaling: cAMP measurements were performed with the cAMP Hunter eXpress® CHRM2 CHO-K1 GPCR assay (Eurofins DiscoveRx, Fremont, Calif., USA) according to the manufacturer's protocol. Briefly, in the provided 96-well tissue culture-treated plate, 100 μL of human M2R expressing CHO-K1 cells were seeded in cell plating reagent and incubated (37° C., 5% CO2, 95% humidity) overnight. Cell plating reagent was replaced with 30 μL of cell assay buffer the next day. For agonist stimulation, cells were treated with increasing half-log unit concentrations of oxotremorine in the presence of 10 μM forskolin, followed by incubation for 30 minutes. A cAMP antibody, cAMP working detection solution and enzyme acceptor solution were then added according to the protocol, and the final chemiluminescent signals were detected by a Mithras LB 940 microplate reader (Berthold Technologies, Bad Wildbad, Germany). Antagonist tests were run by pretreating cells with increasing half-log unit concentrations of α-PHP, followed by incubation for one hour. Cells were then treated with EC80 concentration of oxotremorine (130 nM) and 10 μM forskolin. The same incubation and detection procedure used for agonist assays was used for the remaining steps.
(§2) Curve Fitting and Statistical Analyses: All data were analyzed by GraphPad 8.3.0 (San Diego, Calif., USA). Ki values were determined from data fit to both one- and two-site models. […] EC50 and IC50 values from functional assays were determined from data fit to the log(agonist) vs. response (three parameters) or log(inhibitor) vs. response (three parameters) model, respectively. Kb values were calculated from IC50 values using the Cheng-Prusoff equation with modification (see, e.g., Leff, P., and Dougall, I. G. (1993) Trends Pharmacol Sci 14, 110-112): Kb=IC50/((2+([A]/[A50])nH)1/nH−1)

[5] = target: T5, Dopamine transporter (h) (Homo sapiens, UniProt Q01959); test: Dopamine transporter (h) (antagonist radioligand) competition binding; conditions: for nH: Dopamine transporter (h) (antagonist radioligand)
T5 construct: Eurofins/Cerep (contract testing)
Method: as §1

[6] = target: T6, human M5R (Homo sapiens, UniProt P08912); test: [3H]Scopolamine radioligand competition binding at M5R
T6 construct: host or cells: HEK293 (CRL-1573, ATCC), transient
T6 sequence (P08912 1-532): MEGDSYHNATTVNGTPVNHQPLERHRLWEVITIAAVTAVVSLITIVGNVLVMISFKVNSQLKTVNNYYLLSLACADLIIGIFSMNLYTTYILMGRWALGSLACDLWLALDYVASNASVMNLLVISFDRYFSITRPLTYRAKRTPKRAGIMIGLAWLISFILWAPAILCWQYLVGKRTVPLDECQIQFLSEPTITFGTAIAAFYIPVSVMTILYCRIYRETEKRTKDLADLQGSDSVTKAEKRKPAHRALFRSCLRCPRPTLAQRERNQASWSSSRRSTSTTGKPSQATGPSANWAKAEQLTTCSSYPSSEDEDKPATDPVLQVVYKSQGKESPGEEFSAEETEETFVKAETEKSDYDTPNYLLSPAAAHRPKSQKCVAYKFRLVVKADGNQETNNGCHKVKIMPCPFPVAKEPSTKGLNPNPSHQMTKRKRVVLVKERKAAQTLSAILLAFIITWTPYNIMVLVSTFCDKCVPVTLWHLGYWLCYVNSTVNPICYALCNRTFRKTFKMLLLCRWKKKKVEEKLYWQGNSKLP
Method: Radioligand Competition Binding: Radioligand competition binding assays were conducted using membranes collected from transiently transfected HEK293 cells (P<20 from a procured stock, CRL-1573, ATCC, Manassas, Va., USA) as previously described (Chen, Y., et al. Drug Test Anal 11, 990-998). Briefly, cells ˜90% confluent in 10 cm plates were transfected with 5 μg human M1R, M2R, M3R, M4R or […] cDNA (cDNA resource center, Bloomsburg, Pa., USA) using a lipid-based method (LipoD293 reagent, SignaGen Laboratories, Rockville, Md., USA). Membranes were collected by centrifugation about 48 hours later and stored at −80° C. until used. […] After a 90-minute incubation at room temperature on a shaker, contents from the plates were rapidly filtered through GF/B fiberglass filter mats, pre-soaked with ice cold 50 mM Tris buffer (pH 7.4), using a Microbeta Filtermat-96 cell harvester (Perkin Elmer, Waltham, Mass., USA). Approximately 200 mL of ice cold, 50 mM Tris buffer was then vacuumed through filter mats to wash away unbound radioligand. Filter mats were dried on a hot plate and soaked in Betaplate (Perkin Elmer, Waltham, Mass., USA) scintillation fluid in plastic bags. Bags were sealed and placed in cassettes. Radioactivity was measured in a Microbeta2 Microplate Counter (Perkin Elmer, Waltham, Mass., USA), and counts per minute corresponding to each well on the plates were recorded. For full dose-response competition binding assays, increasing half-log unit concentrations of five unsubstituted PSCs were tested at M2Rs and M1Rs, with the same procedures described above.
as §2

T5 sequence (Q01959 whole entry): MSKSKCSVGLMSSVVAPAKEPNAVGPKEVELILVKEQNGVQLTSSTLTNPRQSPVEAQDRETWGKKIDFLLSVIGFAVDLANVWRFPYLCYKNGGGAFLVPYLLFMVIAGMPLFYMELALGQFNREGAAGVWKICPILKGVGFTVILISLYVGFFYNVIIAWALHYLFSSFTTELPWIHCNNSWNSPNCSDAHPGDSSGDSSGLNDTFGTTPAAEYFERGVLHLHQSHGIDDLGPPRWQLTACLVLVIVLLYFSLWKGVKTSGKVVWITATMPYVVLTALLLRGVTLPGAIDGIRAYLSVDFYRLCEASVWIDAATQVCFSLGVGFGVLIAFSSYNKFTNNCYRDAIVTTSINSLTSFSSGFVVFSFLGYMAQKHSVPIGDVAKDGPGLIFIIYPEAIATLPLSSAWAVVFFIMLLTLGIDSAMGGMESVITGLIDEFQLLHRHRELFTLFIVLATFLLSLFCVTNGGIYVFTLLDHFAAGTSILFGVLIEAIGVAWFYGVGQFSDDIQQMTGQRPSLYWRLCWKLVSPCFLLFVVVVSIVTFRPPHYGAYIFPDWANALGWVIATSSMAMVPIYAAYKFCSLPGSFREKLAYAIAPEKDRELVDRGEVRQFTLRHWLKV
T3 sequence (P23975 whole entry): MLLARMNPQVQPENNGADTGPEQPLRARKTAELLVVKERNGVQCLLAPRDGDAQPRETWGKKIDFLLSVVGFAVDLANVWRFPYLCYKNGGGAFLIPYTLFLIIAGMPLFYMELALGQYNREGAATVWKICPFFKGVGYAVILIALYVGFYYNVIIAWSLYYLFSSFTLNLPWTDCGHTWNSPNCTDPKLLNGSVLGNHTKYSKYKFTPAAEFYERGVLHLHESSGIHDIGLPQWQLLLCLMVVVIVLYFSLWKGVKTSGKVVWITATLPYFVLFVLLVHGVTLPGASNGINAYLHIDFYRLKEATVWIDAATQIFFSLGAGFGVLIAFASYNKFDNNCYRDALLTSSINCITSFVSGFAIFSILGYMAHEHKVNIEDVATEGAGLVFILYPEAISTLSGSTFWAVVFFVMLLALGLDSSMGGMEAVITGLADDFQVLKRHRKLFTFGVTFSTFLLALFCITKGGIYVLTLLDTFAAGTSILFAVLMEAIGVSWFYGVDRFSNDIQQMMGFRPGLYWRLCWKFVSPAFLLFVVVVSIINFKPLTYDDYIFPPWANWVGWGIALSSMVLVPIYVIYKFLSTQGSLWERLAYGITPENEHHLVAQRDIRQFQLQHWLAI
T2 sequence (P31652 whole entry): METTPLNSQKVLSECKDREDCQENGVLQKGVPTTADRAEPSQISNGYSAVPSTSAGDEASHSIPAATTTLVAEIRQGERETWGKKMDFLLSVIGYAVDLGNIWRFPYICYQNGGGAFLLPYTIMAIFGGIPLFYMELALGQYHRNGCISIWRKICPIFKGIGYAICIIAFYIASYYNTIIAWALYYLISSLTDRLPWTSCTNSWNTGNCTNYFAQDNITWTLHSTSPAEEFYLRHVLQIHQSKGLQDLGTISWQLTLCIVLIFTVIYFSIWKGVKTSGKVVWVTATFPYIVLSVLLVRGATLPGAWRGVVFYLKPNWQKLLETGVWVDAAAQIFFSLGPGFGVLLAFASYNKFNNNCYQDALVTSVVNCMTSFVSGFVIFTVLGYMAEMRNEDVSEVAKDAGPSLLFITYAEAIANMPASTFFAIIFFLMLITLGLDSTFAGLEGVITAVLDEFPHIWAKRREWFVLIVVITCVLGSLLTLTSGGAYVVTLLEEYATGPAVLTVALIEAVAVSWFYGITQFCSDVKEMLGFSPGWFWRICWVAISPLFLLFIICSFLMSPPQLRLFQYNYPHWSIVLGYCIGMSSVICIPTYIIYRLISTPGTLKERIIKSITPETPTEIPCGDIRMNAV
T1 sequence (Q01959 whole entry): as the sequence (Q01959 whole entry) above

| Compound | IC50 [1] | IC50 [2] | IC50 [3] | Kb [4] | IC50 [5] | Ki [5] | nH [5] | Ki [6] |
| --- | --- | --- | --- | --- | --- | --- | --- | --- |
| CCCCC(C(=O)c1ccccc1)N1CCCCC1 (stereo not drawn) [Compound (1), 1-phenyl-2-(piperidin-1-yl)hexan-1-one] | 47 nM | 37000 nM | 1300 nM | 126 nM | 72 nM | 38 nM | 1 | 679 nM |
| CCCCC(C(=O)c1ccccc1)N1CCCCCC1 (stereo not drawn) [Compound (2), 2-(azepan-1-yl)-1-phenylhexan-1-one] | 70 nM | 12000 nM | 1100 nM | 158 nM | 100 nM | 54 nM | 0.9 | 1040 nM |
| CCCCC(C(=O)c1ccccc1)N1CCCC1 (stereo not drawn) [α-PHP, 1-phenyl-2-(pyrrolidin-1-yl)hexan-1-one] |  |  |  | 120 nM |  |  |  | 1510 nM |
